Reference: US12568972B2, “Pyridazinol compounds and derivatives, preparation methods, herbicidal compositions and applications thereof” (Qingdao Kingagroot Chemical Compound Co., Ltd., priority 2018, dated 2026)

Key:
Assay in all cases: Post-emergence test, weed control effect
Type in all cases: in vivo
Details in all cases: after 3 weeks
Chenopodiaceae = system: Chenopodiaceae
Method in brief: (§1)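 Scores use a 0 (no effect) to 10 (dead) scale of fresh-weight inhibition, assessed 3 weeks after spraying. Treatment was at the 2-3 leaf stage, 2-3 weeks post-sowing, using acetone/Tween-80/water solutions with 80% vegetable oil methyl ester synergist at 1500 g/ha.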

Veronica polita = system: Veronica polita
Method in brief: as §1

Amaranthus retroflexus = system: Amaranthus retroflexus
Method in brief: as §1

Rorippa indica = system: Rorippa indica
Method in brief: as §1

CCCCCCCC(=O)Oc1cc(C(F)(F)F)nnc1-c1ccc(F)c(F)c1 [Compound 1-14]
10: weed control effect, Chenopodiaceae (activity level) (Chenopodiaceae; Dose 3000 g/ha) | weed control effect, Veronica polita (activity level) (Veronica polita; Dose 3000 g/ha) | weed control effect, Amaranthus retroflexus (activity level) (Amaranthus retroflexus; Dose 3000 g/ha) | weed control effect, Rorippa indica (activity level) (Rorippa indica; Dose 3000 g/ha)

Cn1ncc(CC(F)(F)F)c1-c1nnc(C(F)(F)F)cc1O [Compound 825]
10: weed control effect (activity level), Chenopodiaceae (Chenopodiaceae; Dose 3000 g/ha) | weed control effect (activity level), Veronica polita (Veronica polita; Dose 3000 g/ha) | weed control effect (activity level), Amaranthus retroflexus (Amaranthus retroflexus; Dose 3000 g/ha) | weed control effect (activity level), Rorippa indica (Rorippa indica; Dose 3000 g/ha)

CC(=O)Oc1ccccc1C(=O)Oc1cc(C(F)(F)F)nnc1-c1ccccc1 [Compound 1-87]
10: weed control effect, Chenopodiaceae (activity level) (Chenopodiaceae; Dose 3000 g/ha) | weed control effect, Veronica polita (activity level) (Veronica polita; Dose 3000 g/ha) | weed control effect, Amaranthus retroflexus (activity level) (Amaranthus retroflexus; Dose 3000 g/ha) | weed control effect, Rorippa indica (activity level) (Rorippa indica; Dose 3000 g/ha)

O=C(COc1cc(C(F)(F)F)nnc1-c1ccc(F)c(F)c1)c1ccccc1 [Compound 1-213]
10: weed control effect, Chenopodiaceae (activity level) (Chenopodiaceae; Dose 3000 g/ha) | weed control effect, Veronica polita (activity level) (Veronica polita; Dose 3000 g/ha) | weed control effect, Amaranthus retroflexus (activity level) (Amaranthus retroflexus; Dose 3000 g/ha) | weed control effect, Rorippa indica (activity level) (Rorippa indica; Dose 3000 g/ha)

N#Cc1ccc(-c2nnc(C(F)(F)F)cc2O)cn1 [Compound 983]
10: weed control effect (activity level), Chenopodiaceae (Chenopodiaceae; Dose 3000 g/ha) | weed control effect (activity level), Veronica polita (Veronica polita; Dose 3000 g/ha) | weed control effect (activity level), Amaranthus retroflexus (Amaranthus retroflexus; Dose 3000 g/ha) | weed control effect (activity level), Rorippa indica (Rorippa indica; Dose 3000 g/ha)

O=C(Oc1cc(C(F)(F)F)nnc1-c1ccc(F)cc1)c1ccno1 [Compound 1-109]
10: weed control effect, Chenopodiaceae (activity level) (Chenopodiaceae; Dose 3000 g/ha) | weed control effect, Veronica polita (activity level) (Veronica polita; Dose 3000 g/ha) | weed control effect, Amaranthus retroflexus (activity level) (Amaranthus retroflexus; Dose 3000 g/ha) | weed control effect, Rorippa indica (activity level) (Rorippa indica; Dose 3000 g/ha)

Oc1cc(C(F)(F)F)nnc1-c1cccc2cnccc12 [Compound 636]
10: weed control effect (activity level), Chenopodiaceae (Chenopodiaceae; Dose 3000 g/ha) | weed control effect (activity level), Veronica polita (Veronica polita; Dose 3000 g/ha) | weed control effect (activity level), Amaranthus retroflexus (Amaranthus retroflexus; Dose 3000 g/ha) | weed control effect (activity level), Rorippa indica (Rorippa indica; Dose 3000 g/ha)

O=C(Oc1cc(C(F)(F)F)nnc1-c1ccc(F)c(F)c1)c1ccccc1 [Compound 1-79]
10: weed control effect, Chenopodiaceae (activity level) (Chenopodiaceae; Dose 3000 g/ha) | weed control effect, Veronica polita (activity level) (Veronica polita; Dose 3000 g/ha) | weed control effect, Amaranthus retroflexus (activity level) (Amaranthus retroflexus; Dose 3000 g/ha) | weed control effect, Rorippa indica (activity level) (Rorippa indica; Dose 3000 g/ha)

O=C(CCCBr)Oc1cc(C(F)(F)F)nnc1-c1ccc(F)c(F)c1 [Compound 1-23]
10: weed control effect, Chenopodiaceae (activity level) (Chenopodiaceae; Dose 3000 g/ha) | weed control effect, Veronica polita (activity level) (Veronica polita; Dose 3000 g/ha) | weed control effect, Amaranthus retroflexus (activity level) (Amaranthus retroflexus; Dose 3000 g/ha) | weed control effect, Rorippa indica (activity level) (Rorippa indica; Dose 3000 g/ha)

Cc1cc(F)ccc1-c1nnc(C(F)(F)F)cc1O [Compound 58]
10: weed control effect (activity level), Chenopodiaceae (Chenopodiaceae; dose 1000 g/ha) | weed control effect (activity level), Veronica polita (Veronica polita; dose 1000 g/ha) | weed control effect (activity level), Amaranthus retroflexus (Amaranthus retroflexus; dose 1000 g/ha) | weed control effect (activity level), Rorippa indica (Rorippa indica; dose 1000 g/ha)

O=C(Oc1cc(C(F)(F)F)nnc1-c1ccccc1)c1ccc2occc2c1 [Compound 1-117]
10: weed control effect, Chenopodiaceae (activity level) (Chenopodiaceae; Dose 3000 g/ha) | weed control effect, Veronica polita (activity level) (Veronica polita; Dose 3000 g/ha) | weed control effect, Amaranthus retroflexus (activity level) (Amaranthus retroflexus; Dose 3000 g/ha) | weed control effect, Rorippa indica (activity level) (Rorippa indica; Dose 3000 g/ha)

CCc1cnn(C)c1-c1nnc(C(F)(F)F)cc1O [Compound 809]
10: weed control effect (activity level), Chenopodiaceae (Chenopodiaceae; Dose 3000 g/ha) | weed control effect (activity level), Veronica polita (Veronica polita; Dose 3000 g/ha) | weed control effect (activity level), Amaranthus retroflexus (Amaranthus retroflexus; Dose 3000 g/ha) | weed control effect (activity level), Rorippa indica (Rorippa indica; Dose 3000 g/ha)

Cn1ncc(F)c1-c1nnc(C(F)(F)F)cc1O [Compound 804]
10: weed control effect (activity level), Chenopodiaceae (Chenopodiaceae; Dose 3000 g/ha) | weed control effect (activity level), Veronica polita (Veronica polita; Dose 3000 g/ha) | weed control effect (activity level), Amaranthus retroflexus (Amaranthus retroflexus; Dose 3000 g/ha) | weed control effect (activity level), Rorippa indica (Rorippa indica; Dose 3000 g/ha)

Oc1cc(C(F)(F)F)nnc1-c1ccc(F)cc1C(F)(F)F [Compound 764]
10: weed control effect (activity level), Chenopodiaceae (Chenopodiaceae; Dose 3000 g/ha) | weed control effect (activity level), Veronica polita (Veronica polita; Dose 3000 g/ha) | weed control effect (activity level), Amaranthus retroflexus (Amaranthus retroflexus; Dose 3000 g/ha) | weed control effect (activity level), Rorippa indica (Rorippa indica; Dose 3000 g/ha)

Oc1cc(C(F)(F)F)nnc1-c1ccc(C(F)(F)F)cc1 [Compound 746]
10: weed control effect (activity level), Chenopodiaceae (Chenopodiaceae; Dose 3000 g/ha) | weed control effect (activity level), Veronica polita (Veronica polita; Dose 3000 g/ha) | weed control effect (activity level), Amaranthus retroflexus (Amaranthus retroflexus; Dose 3000 g/ha) | weed control effect (activity level), Rorippa indica (Rorippa indica; Dose 3000 g/ha)

Oc1cc(C(F)(F)F)nnc1-c1c(F)ccc(F)c1F [Compound 54]
10: weed control effect (activity level), Chenopodiaceae (Chenopodiaceae; dose 1000 g/ha) | weed control effect (activity level), Veronica polita (Veronica polita; dose 1000 g/ha) | weed control effect (activity level), Amaranthus retroflexus (Amaranthus retroflexus; dose 1000 g/ha) | weed control effect (activity level), Rorippa indica (Rorippa indica; dose 1000 g/ha)

CCON(C)C(=O)Oc1cc(C(F)(F)F)nnc1-c1ccc(F)cc1 [Compound 1-63]
10: weed control effect, Chenopodiaceae (activity level) (Chenopodiaceae; Dose 3000 g/ha) | weed control effect, Veronica polita (activity level) (Veronica polita; Dose 3000 g/ha) | weed control effect, Amaranthus retroflexus (activity level) (Amaranthus retroflexus; Dose 3000 g/ha) | weed control effect, Rorippa indica (activity level) (Rorippa indica; Dose 3000 g/ha)

Cc1cc(-c2nnc(C(F)(F)F)cc2O)cnc1Cl [Compound 225]
10: weed control effect (activity level), Chenopodiaceae (Chenopodiaceae; dose 2000 g/ha) | weed control effect (activity level), Veronica polita (Veronica polita; dose 2000 g/ha) | weed control effect (activity level), Amaranthus retroflexus (Amaranthus retroflexus; dose 2000 g/ha) | weed control effect (activity level), Rorippa indica (Rorippa indica; dose 2000 g/ha)
